Results reported in patent US20080171059A1, “METHODS AND COMPOSITIONS FOR INCREASED PRIMING OF T-CELLS THROUGH CROSS-PRESENTATION OF EXOGENOUS ANTIGENS” (priority 2006, published 2008).

How the values were obtained:
[1] = tested on: CD8+ T cell line specifically recognizing the N9V/HLA-A*0201 complex; assay: Cross-presentation assay: yeast-fed monocyte-derived DCs stimulate IFNγ secretion in co-cultured N9V-specific CD8+ T cells; assay type: cell-based, human
Experimental: An interferon gamma (IFNY) secretion cell capture FACS assay was performed on the T cells to quantify the percentage of cells that had been activated as a result of cross-presentation by the DCs.
The monocytes were aliquoted into vials and cryopreserved in 90% fetal bovine serum (FBS), 10% DMSO. […] Unless otherwise indicated, media components were from Hyclone (Logan, Utah); low endotoxin products were chosen where available. 4-5×10^6 monocytes were cultured per well of a 6-well plate in 2.5 ml C10 medium supplemented with 1000 U/ml each of interleukin-4 and granulocyte-macrophage colony stimulating factor (C10GF; cytokines from R & D Systems, Minneapolis, Minn.). After 2 and 4 days of culture, each well was topped up with 0.5 ml C10GF; after 6 days of culture, floating and loosely adherent monocyte-derived DCs were harvested by gentle resuspension.
Cross-presentation Assay After 6 days of differentiation, monocyte-derived DCs were seeded in 96-well round bottom plates at 1 or 2×10^5 cells in 200 μl C10GF per well. Appropriate numbers of yeast cells (measured by optical density at 600 nm with 10D≈10^7/ml) were rendered non-viable by UV-irradiation (2×1000 J/m^2 in a Stratalinker, Stratagene, La Jolla, Calif.), pelleted by centrifugation and added to the DCs. For inhibition experiments, DCs were pre-incubated with lactacystin (5 μM; Calbiochem, San Diego, Calif.) or chloroquine (25 μM) for one hour before yeast samples were introduced. […] Following 4 h of co-culture, the contents of each well were transferred to tubes for labeling with Miltenyi's IFNY secretion assay kit (Bergisch Gladbach, Germany) according to the recommended protocol. […] The percentage of CD8^+ cells that were IFNY+ was determined by flow cytometry (Coulter Epics XL, Fullerton, Calif. or BD FACSCalibur). The cut-off PE fluorescence was set for each experiment such that about 0.5% of T cells were IFNY+ in a negative control sample (no yeast or peptide).
Surface Display Antigen Dose Normalization In experiments where different linkers were used to surface-display antigen, several cultures of each yeast sample were induced, and cultures with mean antigen levels within 10% of each other were selected to minimize the effect of variable antigen dose on cross-presentation. […] Therefore, each yeast sample was mixed with the appropriate amount of EBY100 yeast to normalize the antigen dose while maintaining the 20:1 ratio of yeast to DCs.

Cathepsin S = Cathepsin S (Homo sapiens, UniProt P25774); assay: Cleavage of antigen sequences by Cathepsin S; assay type: biochemical; conditions: cleavage positions MQ|AE and NLVPMVA|TV
Chain of Cathepsin S (P25774 115-331): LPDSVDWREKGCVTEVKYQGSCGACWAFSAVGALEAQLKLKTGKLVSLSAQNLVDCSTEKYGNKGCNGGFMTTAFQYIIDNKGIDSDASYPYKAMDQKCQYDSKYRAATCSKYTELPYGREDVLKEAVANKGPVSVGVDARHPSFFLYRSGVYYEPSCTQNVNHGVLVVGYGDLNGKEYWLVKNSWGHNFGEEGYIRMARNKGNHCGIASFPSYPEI

CC(=O)N[C@@H](CSC(=O)[C@]1([C@@H](O)C(C)C)NC(=O)[C@H](C)[C@@H]1O)C(=O)O [lactacystin]
Effect of inhibitor on cross-presentation of surface-displayed antigen ([1]; EBYN9V yeast 20:1, lactacystin 5 μM or chloroquine 25 μM added one hour before yeast): strongly inhibited | Effect of inhibitor on cross-presentation of strains with deleted, C1 and (C1)4 linkers ([1]; all three integrated strains, lactacystin 5 μM or chloroquine 25 μM): inhibited | Effect of inhibitor on cross-presentation of intracellular antigen ([1]; yeast expressing Aga2p-N9V intracellularly 20:1, lactacystin 5 μM or chloroquine 25 μM): inhibited

ARNLVPMVATVQGQN [15-mer extended CMV pp 65 peptide containing N9V, positive control]
Percentage of IFNγ+ T cells ([1]; positive control, 1 μM extended peptide): 45-70%

NLVPMVATV [cytomegalovirus epitope, HLA-A*0201-restricted peptide derived from CMV phosphoprotein pp 65]
Cleavage by Cathepsin S (Cathepsin S): cleaved rapidly
